# Measured values from patent US20230123334A1, “AMINO LIPID COMPOUND, PREPARATION METHOD THEREFOR, AND APPLICATION THEREOF” (SHENZHEN SHENXIN BIOTECHNOLOGY CO., LTD., priority 2020, published 2023).
# Experiments:
# HEK293 cells [1] = test: Preliminary screening as mRNA vectors, EGFP mRNA transfection of HEK293 cells; format: cell-based; settings: EGFP mRNA 50 ng per well, 96-well plates; percentage of GFP fluorescent cells relative to total number of cells (Hoechst)
# Experimental: Cell line: HEK293 cells (ATCC CRL-1573™)
# Medium: DMEM supplemented with 10% fetal bovine serum (Invitrogen)
# Screening: cell transfection on 96-well plates
# Detection (readout): percentage of the number of GFP fluorescent cells relative to the total number of cells (the total number of cells was determined using nucleus dye Hoechst). Lipofectamine2000 (Invitrogen) was used as the positive control.
# Method: the experimental method was basically the same with Example 4, and the mass of EGFP mRNA (TriLink) for transfection was 50 ng per well.
# HEK293 cells [2] = test: Preliminary screening as DNA vectors, GFP transfection of HEK293 cells; format: cell-based; settings: amino lipid/DOPE liposome with 75 ng plasmid DNA (psin-EGFP-IRES-Puro); number of GFP-expressing cells divided by total nuclei (Hoechst)
# Method in brief: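 First, amino lipid and DOPE were vortexed in sodium acetate buffer (pH 5.6) to form liposomes. Next, these were held with 75 ng EGFP plasmid at room temperature for 30 min. Finally, HEK293 cells were added, cultured at 37° C., Hoechst-stained, and GFP+/total nuclei scored by imaging.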
Compound,Absolute mRNA transfection efficiency in HEK293 cells (HEK293 cells [1]),Absolute DNA transfection efficiency in HEK293 cells (HEK293 cells [2])
CCCCCCNc1nc(NCCN(C)C)nc(SCCCCCC)n1 [Compound D1S6N6],0.8%,
CCCCCCCNc1nc(NCCN(C)C)nc(SCCCCCC)n1 [Compound D1S6N7],2.3%,
CCCCCCCCNc1nc(NCCN(C)C)nc(SCCCCCC)n1 [Compound D1S6N8],3.1%,
CCCCCCCCCNc1nc(NCCN(C)C)nc(SCCCCCC)n1 [Compound D1S6N9],1.8%,
CCCCCCCCCCCNc1nc(NCCN(C)C)nc(SCCCCCC)n1 [Compound D1S6N11],1.0%,
CCCCCCCCCCCCNc1nc(NCCN(C)C)nc(SCCCCCC)n1 [Compound D1S6N12],0.0%,
CCCCCCCCCCCCCNc1nc(NCCN(C)C)nc(SCCCCCC)n1 [Compound D1S6N13],1.8%,
CCCCCCCCCCCCCCCNc1nc(NCCN(C)C)nc(SCCCCCC)n1 [Compound D1S6N15],3.6%,
CCCCCCCCCCCCCCCCCCSc1nc(NCCCCCCCCCCCCC)nc(NCCN2CCCC2)n1 [S18N13 D3],,2.8%
CCCCCCCCCCCCCCCCCCSc1nc(NCCCCCCCCCCCCC)nc(NCCN2CCCCC2)n1 [S18N13 D4],,0.0%
CCCCCCCCCCCCCCCCCCSc1nc(NCCCCCCCCCCCCC)nc(NCCN2CCN(C)CC2)n1 [S18N13 D5],,0.0%
CCCCCCCCCCCCCCCCCCSc1nc(NCCCCCCCCCCCCC)nc(NCCCN(C)C)n1 [S18N13 D6],,2.6%
CCCCCCCCCCCCCCCCCCSc1nc(NCCCCCCCCCCCCC)nc(NCCN(CC)CC)n1 [S18N13 D7],,0.0%
CCCCCCCCCCCCCCCCCCSc1nc(NCCCCCCCCCCCCC)nc(NCCCN2CCOCC2)n1 [S18N13 D8],,0.0%
CCCCCCCCCCCCCCCCCCSc1nc(NCCCCCCCCCCCCC)nc(NCCCN2CCN(C)CC2)n1 [S18N13 D9],,1.8%
CCCCCCCCCCCCCCCCCCSc1nc(NCCCCCCCCCCCCC)nc(NCC2CCN(C)CC2)n1 [S18N13 D10],,0.9%
CCCCCCCCCCCCCCCCCCSc1nc(NCCCCCCCCCCCCCCC)nc(NCCN(C)C)n1 [S18N15 D1],,0.2%
CCCCCCCCCCCCCCCCCCSc1nc(NCCCCCCCCCCCCCCC)nc(NCCN2CCOCC2)n1 [S18N15 D2],,0.0%
CCCCCCCCCCCCCCCCCCSc1nc(NCCCCCCCCCCCCCCC)nc(NCCN2CCCC2)n1 [S18N15 D3],,0.2%

Compound,Absolute mRNA transfection efficiency in HEK293 cells (HEK293 cells [1]),Absolute DNA transfection efficiency in HEK293 cells (HEK293 cells [2])
CCCCCCCCCCCCCCCCCCSc1nc(NCCCCCCCCCCCCCCC)nc(NCCN2CCCCC2)n1 [S18N15 D4],,0.2%
CCCCCCCCCCCCCCCCCCSc1nc(NCCCCCCCCCCCCCCC)nc(NCCN2CCN(C)CC2)n1 [S18N15 D5],,0.0%
CCCCCCCCCCCCCCCCCCSc1nc(NCCCCCCCCCCCCCCC)nc(NCCCN(C)C)n1 [S18N15 D6],,0.0%
CCCCCCCCCCCCCCCCCCSc1nc(NCCCCCCCCCCCCCCC)nc(NCCN(CC)CC)n1 [S18N15 D7],,0.1%
CCCCCCCCCCCCCCCCCCSc1nc(NCCCCCCCCCCCCCCC)nc(NCCCN2CCOCC2)n1 [S18N15 D8],,0.0%
CCCCCCCCCCCCCCCCCCSc1nc(NCCCCCCCCCCCCCCC)nc(NCCCN2CCN(C)CC2)n1 [S18N15 D9],,0.1%
CCCCCCCCCCCCCCCCCCSc1nc(NCCCCCCCCCCCCCCC)nc(NCC2CCN(C)CC2)n1 [S18N15 D10],,0.2%
CCCCCCCCCCCCCCCCCCSc1nc(NCCCCCCCCCCCCCCCC)nc(NCCN(C)C)n1 [S18N16 D1],,0.0%
CCCCCCCCCCCCCCCCCCSc1nc(NCCCCCCCCCCCCCCCC)nc(NCCN2CCOCC2)n1 [S18N16 D2],,0.0%
CCCCCCCCCCCCCCCCCCSc1nc(NCCCCCCCCCCCCCCCC)nc(NCCN2CCCC2)n1 [S18N16 D3],,0.1%
CCCCCCCCCCCCCCCCCCSc1nc(NCCCCCCCCCCCCCCCC)nc(NCCN2CCCCC2)n1 [S18N16 D4],,0.1%
CCCCCCCCCCCCCCCCCCSc1nc(NCCCCCCCCCCCCCCCC)nc(NCCN2CCN(C)CC2)n1 [S18N16 D5],,0.2%
CCCCCCCCCCCCCCCCCCSc1nc(NCCCCCCCCCCCCCCCC)nc(NCCCN(C)C)n1 [S18N16 D6],,0.0%
CCCCCCCCCCCCCCCCCCSc1nc(NCCCCCCCCCCCCCCCC)nc(NCCN(CC)CC)n1 [S18N16 D7],,0.0%
CCCCCCCCCCCCCCCCCCSc1nc(NCCCCCCCCCCCCCCCC)nc(NCCCN2CCOCC2)n1 [S18N16 D8],,0.0%
CCCCCCCCCCCCCCCCCCSc1nc(NCCCCCCCCCCCCCCCC)nc(NCCCN2CCN(C)CC2)n1 [S18N16 D9],,0.0%
CCCCCCCCCCCCCCCCCCSc1nc(NCCCCCCCCCCCCCCCC)nc(NCC2CCN(C)CC2)n1 [S18N16 D10],,0.1%
CCCCCCCCCCCCCCCCCCNc1nc(NCCN(C)C)nc(SCCCCCCCCCCCCCCCCCC)n1 [S18N18 D1],,0.1%
CCCCCCCCCCCCCCCCCCNc1nc(NCCN2CCOCC2)nc(SCCCCCCCCCCCCCCCCCC)n1 [S18N18 D2],,0.1%

Compound,Absolute mRNA transfection efficiency in HEK293 cells (HEK293 cells [1]),Absolute DNA transfection efficiency in HEK293 cells (HEK293 cells [2])
CCCCCCCCCCCCCCCCCCNc1nc(NCCN2CCCC2)nc(SCCCCCCCCCCCCCCCCCC)n1 [S18N18 D3],,0.0%
CCCCCCCCCCCCCCCCCCNc1nc(NCCN2CCCCC2)nc(SCCCCCCCCCCCCCCCCCC)n1 [S18N18 D4],,0.0%
CCCCCCCCCCCCCCCCCCNc1nc(NCCN2CCN(C)CC2)nc(SCCCCCCCCCCCCCCCCCC)n1 [S18N18 D5],,0.0%
CCCCCCCCCCCCCCCCCCNc1nc(NCCCN(C)C)nc(SCCCCCCCCCCCCCCCCCC)n1 [S18N18 D6],,0.4%
CCCCCCCCCCCCCCCCCCNc1nc(NCCN(CC)CC)nc(SCCCCCCCCCCCCCCCCCC)n1 [S18N18 D7],,0.0%
CCCCCCCCCCCCCCCCCCNc1nc(NCCCN2CCOCC2)nc(SCCCCCCCCCCCCCCCCCC)n1 [S18N18 D8],,0.0%
CCCCCCCCCCCCCCCCCCNc1nc(NCCCN2CCN(C)CC2)nc(SCCCCCCCCCCCCCCCCCC)n1 [S18N18 D9],,0.0%
CCCCCCCCCCCCCCCCCCNc1nc(NCC2CCN(C)CC2)nc(SCCCCCCCCCCCCCCCCCC)n1 [S18N18 D10],,0.0%
CCCCCCCCCCCCCCCCCCSc1nc(NCCN(C)C)nc(N(CCCCCCCCCCCC)CCCCCCCCCCCC)n1 [S18^2N12 D1],,0.0%
CCCCCCCCCCCCCCCCCCSc1nc(NCCN2CCOCC2)nc(N(CCCCCCCCCCCC)CCCCCCCCCCCC)n1 [S18^2N12 D2],,0.0%
CCCCCCCCCCCCCCCCCCSc1nc(NCCN2CCCC2)nc(N(CCCCCCCCCCCC)CCCCCCCCCCCC)n1 [S18^2N12 D3],,0.2%
CCCCCCCCCCCCCCCCCCSc1nc(NCCN2CCCCC2)nc(N(CCCCCCCCCCCC)CCCCCCCCCCCC)n1 [S18^2N12 D4],,0.0%
CCCCCCCCCCCCCCCCCCSc1nc(NCCN2CCN(C)CC2)nc(N(CCCCCCCCCCCC)CCCCCCCCCCCC)n1 [S18^2N12 D5],,0.0%
CCCCCCCCCCCCCCCCCCSc1nc(NCCCN(C)C)nc(N(CCCCCCCCCCCC)CCCCCCCCCCCC)n1 [S18^2N12 D6],,1.6%
CCCCCCCCCCCCCCCCCCSc1nc(NCCN(CC)CC)nc(N(CCCCCCCCCCCC)CCCCCCCCCCCC)n1 [S18^2N12 D7],,0.0%
CCCCCCCCCCCCCCCCCCSc1nc(NCCCN2CCOCC2)nc(N(CCCCCCCCCCCC)CCCCCCCCCCCC)n1 [S18^2N12 D8],,0.0%
CCCCCCCCCCCCCCCCCCSc1nc(NCCCN2CCN(C)CC2)nc(N(CCCCCCCCCCCC)CCCCCCCCCCCC)n1 [S18^2N12 D9],,0.0%
CCCCCCCCCCCCCCCCCCSc1nc(NCC2CCN(C)CC2)nc(N(CCCCCCCCCCCC)CCCCCCCCCCCC)n1 [S18^2N12 D10],,0.4%
